Data reported in patent publication US11542263B2 (NeuroCycle Therapeutics, Inc., priority 2018, dated 2023).

What was measured:
[1] = Accelerated stability testing (HPLC assay and purity); type: physicochemical; conditions: for Assay (%): assay criterion 95%-105%
Protocol: The stability of Phosphate Polymorphic Form and Free Base Polymorphic Form A were evaluated under accelerated conditions.
Appropriately 2 mg of compounds were accurately weighed into a glass vial, then added diluents (ACN/water, 50/50) and sonicated for 2 minutes to dilute the target concentration of 0.2 mg/mL. The solution was equilibrated to room temperature and then the purity of the compounds was determined by HPLC.

[2] = Hygroscopicity by dynamic vapor sorption (DVS); type: physicochemical
Protocol: The hygroscopicity of Phosphate Polymorph Form A was measured by Dynamic vapor sorption (DVS). […] After DVS, XRPD confirmed that the crystalline form was retained (see FIG. 19).

SMILES: CC(C)(O)c1cnn2c(-c3ccc(F)c(-c4c(F)cccc4C#N)c3)cnc2n1.O=P(O)(O)O [Phosphate Polymorphic Form A, 2′,6-difluoro-5′-[3-(1-hydroxy-1-methylethyl)-imidazo[1,2-b][1,2,4]triazin-7-yl]biphenyl-2-carbonitrile]
- Purity (%) ([1]; 40° C./75% RH (open), 1 week): 99.02%
- Assay (%) ([1]; 40° C./75% RH (open), 1 week): 97.12%
- Purity (%) ([1]; 80° C. (open), 1 week): 98.94%
- Assay (%) ([1]; 80° C. (open), 1 week): 95.99%
- Purity (%) ([1]; Initial): 98.91%
- Assay (%) ([1]; Initial): 104.60%
- Purity (%) ([1]; Light, ~50 h): 97.55%
- Assay (%) ([1]; Light, ~50 h): 95.25%
- reversible mass increase (hygroscopicity) [2]: about 1.08%
